Reference: US8119629B2, “Carboxamide GABAA α2 modulators” (Bristol-Meyers Squibb Company, priority 2007, dated 2012)
Where a name gives a salt, the structure may show the parent alone.

Target: T1, rat GABAA α2β2γ2 Receptors (Rattus norvegicus, UniProt P23576)
T1 construct: expressed in transfected cells; pIRES Neo2 / Hygro2 / Puro2 vectors
Assay: PatchXpress 7000A automated parallel patch-clamp: potentiation of GABA EC20 current in HEK293 cells
Assay type: cell-based
Settings: percent increase in mean GABA EC20 current response, HEK293 cells stably expressing rat GABAA α2β2γ2, voltage-clamped at −60 mV; for Emax: read-out: GABAA α2 EP EMAX (%)
Procedure: Cell Line Generation and Transient Expression. In order to generate stable clonal lines expressing GABAA configurations containing α2β2γ2 subunits, HEK293 cells were transfected with 2 μg of the subunit, using the Invitrogen Lipofectamine PLUS protocol. The following DNA and vector were used for the stable transfection: α2 subunits in pIRES Neo2, β2 subunit in pIRES Hygro2, and a γ2 subunit in pIRES Puro2. Transfectants were selected with G418, Hygromycin B, and Puromycin antibiotics and cloned by limiting dilution. For transient expression, transfections were performed using the Amaxa transfection protocol and 2 μg DNA of the GABAA receptor subunit using Amaxa transfection protocol. Cells were used for experiments 24-72 hrs post transfection.
PatchXpress® 7000A Automated Parallel Patch-Clamp System. HEK293 cells stably expressing recombinant the rat GABAA/α2β2γ2 configuration were harvested by a single DPBS wash followed by 0.025% Trypsin-EDTA treatment for one minute at room temperature. A 6-ml cell suspension (1.7×10^5 cells/ml) was centrifuged at 500 rpm for 60 s. The cell pellet was gently agitated, suspended in 150 μl extracellular saline buffer, and transferred to a 1.5-ml tube.
After manually placing the AVIVA Biosciences SealChip 16™ in the holder of the PatchXpress®, the SealChip16™ was automatically prepared for application of the cells. Intracellular solution containing (in mM) CsCl, 135; EGTA, 11; MgCl2, 1; HEPES, 10; ATP, 5; GTP, 0.3 (pH 7.3 with CsOH, 290-300 mOsmol) was injected into the bottom of each chamber, and extracellular solution containing (in mM) NaCl, 140; KCl, 4; CaCl2, 1.8; MgCl2, 1; glucose, 10; HEPES, 10; ATP-K2, 5 (pH 7.4 with NaOH 305-310 mOsmol) was perfused into the top of the chambers through a 16-nozzle wash station. Throughout this period, the pressure controller maintained a positive pressure (+10 mmHg) from the intracellular side to keep the hole free of debris. Seal formation was achieved by a ramp increase in negative pressure from 0 to −35 mmHg at a rate of −3.5 mmHg/s every 10 s until a giga ohm seal was obtained and verified for 30 s.
Compounds were prepared from fresh DMSO stock and were transferred to a 96-well disposable glass insert compound plate for placement in the PatchXpress®. A full 10 point concentration-response curve for GABA was obtained for the GABA receptor cell line, from which an EC20 was estimated. Test compounds were assayed for their ability to potentiate the current response by an EC20 concentration of GABA. Each experiment began by two consecutive applications of GABA EC20 alone. Following formation of a giga-ohm seal, patch chambers were perfused with extracellular saline for 60 s to remove excess cells from the well. Cells were then voltage-clamped to −60 mV for the duration of the experiment. After 60 s, 30 μl (10 μl/s over 3 s) of GABA EC20 concentration, which elicited a GABA receptor-mediated inward Cl^− current generally in the order of 200-300 pA in peak amplitude, was added to each chamber. The GABA EC20 concentration was then washed out of the recording chamber after 5 s and washing with extracellular saline was continued for 60 s. After another 60 s, a second GABA EC20 concentration was applied under the same paradigm. […] Following the second GABA EC20 application, the lowest concentration of test compound in the presence of the GABA EC20 concentration was similarly applied. Ascending concentrations of the test compound were applied successively to an individual well in the presence of the GABA EC20 concentration.
Only cells meeting strict predetermined patch-clamp QC parameters, including seal resistance, membrane resistance, and holding current were included in data analysis. GABA current responses in the presence of test compound were measured and expressed as the mean of the initial control GABA EC20 current responses. The peak current amplitude was measured using DataXpress/pCLAMP9 (Axon Instruments). Linear leak subtraction was performed off-line. […]

T1 sequence (P23576 29-451): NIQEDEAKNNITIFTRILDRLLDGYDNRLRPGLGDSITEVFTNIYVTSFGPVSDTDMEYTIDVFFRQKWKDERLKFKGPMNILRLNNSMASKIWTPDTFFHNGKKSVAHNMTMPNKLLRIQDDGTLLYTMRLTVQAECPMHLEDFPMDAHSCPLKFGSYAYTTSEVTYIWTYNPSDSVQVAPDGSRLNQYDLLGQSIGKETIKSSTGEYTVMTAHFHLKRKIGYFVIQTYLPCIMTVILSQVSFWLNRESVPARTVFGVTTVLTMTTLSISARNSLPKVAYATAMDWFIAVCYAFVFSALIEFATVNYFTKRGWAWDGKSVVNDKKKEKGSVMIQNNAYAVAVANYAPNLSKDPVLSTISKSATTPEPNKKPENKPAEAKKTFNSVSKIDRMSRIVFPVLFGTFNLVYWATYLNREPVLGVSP
T1 sequence (P63138 25-474 partner limits assumed): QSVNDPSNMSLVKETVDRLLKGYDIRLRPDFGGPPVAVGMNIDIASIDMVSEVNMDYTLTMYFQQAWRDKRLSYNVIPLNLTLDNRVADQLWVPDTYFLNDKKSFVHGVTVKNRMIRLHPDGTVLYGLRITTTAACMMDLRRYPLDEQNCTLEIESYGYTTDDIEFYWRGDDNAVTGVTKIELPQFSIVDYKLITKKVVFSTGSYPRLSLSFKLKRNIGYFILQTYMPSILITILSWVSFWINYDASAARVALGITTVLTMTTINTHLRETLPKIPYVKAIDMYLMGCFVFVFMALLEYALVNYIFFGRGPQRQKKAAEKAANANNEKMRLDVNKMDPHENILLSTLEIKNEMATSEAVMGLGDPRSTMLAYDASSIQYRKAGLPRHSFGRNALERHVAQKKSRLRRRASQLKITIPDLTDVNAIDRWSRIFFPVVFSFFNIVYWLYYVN
T1 sequence (P18508 39-466 partner): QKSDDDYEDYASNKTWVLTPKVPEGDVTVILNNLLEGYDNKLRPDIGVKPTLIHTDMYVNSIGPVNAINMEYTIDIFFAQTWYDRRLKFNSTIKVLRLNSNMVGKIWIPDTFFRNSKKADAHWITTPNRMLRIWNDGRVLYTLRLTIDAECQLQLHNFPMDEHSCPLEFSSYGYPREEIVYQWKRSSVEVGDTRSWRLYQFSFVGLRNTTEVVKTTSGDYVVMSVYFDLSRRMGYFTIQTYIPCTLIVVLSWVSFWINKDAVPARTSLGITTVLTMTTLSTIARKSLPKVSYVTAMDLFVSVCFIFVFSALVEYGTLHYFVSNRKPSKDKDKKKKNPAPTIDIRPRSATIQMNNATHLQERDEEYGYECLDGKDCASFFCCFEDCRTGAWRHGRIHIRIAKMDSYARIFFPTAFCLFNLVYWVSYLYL

C#Cc1ccc2c(c1)C(c1ccccc1)=NCc1c(C(=O)NCCCO)ncn1-2 [Example 29, 8-Ethynyl-N-(3-hydroxypropyl)-6-phenyl-4H-benzo[f]imidazo[1,5-a][1,4]diazepine-3-carboxamide dihydrochloride]
Emax: 300 to 400%

C#Cc1ccc2c(c1)C(c1ccccc1)=NCc1c(C(=O)NCCCCCO)ncn1-2 [Example 30, 8-Ethynyl-N-(5-hydroxypentyl)-6-phenyl-4H-benzo[f]imidazo[1,5-a][1,4]diazepine-3-carboxamide dihydrochloride]
Emax: 300 to 400%

C#Cc1ccc2c(c1)C(c1ccccc1)=NCc1c(C(=O)NCCCCO)ncn1-2 [Example 31, 8-Ethynyl-N-(4-hydroxybutyl)-6-phenyl-4H-benzo[f]imidazo[1,5-a][1,4]diazepine-3-carboxamide dihydrochloride]
Emax: 300 to 400%

C#Cc1ccc2c(c1)C(c1ccccc1)=NCc1c(C(=O)NCCOC(C)=O)ncn1-2 [Example 32, 2-(8-Ethynyl-6-phenyl-4H-benzo[f]imidazo[1,5-a][1,4]diazepine-3-carboxamido)ethyl acetate dihydrochloride]
Emax: 300 to 400%

C#Cc1ccc2c(c1)C(c1ccccc1)=NCc1c(C(=O)NCC(=O)O)ncn1-2 [Example 33, 2-(8-Ethynyl-6-phenyl-4H-benzo[f]imidazo[1,5-a][1,4]diazepine-3-carboxamido)acetic acid]
Emax: 400 to 500%

C#Cc1ccc2c(c1)C(c1ccccc1F)=NCc1c(C(=O)NCCOC)ncn1-2 [Example 34, 8-Ethynyl-6-(2-fluorophenyl)-N-(2-methoxyethyl)-4H-benzo[f]imidazo[1,5-a][1,4]diazepine-3-carboxamide dihydrochloride]
Emax: 300 to 400%

C#Cc1ccc2c(c1)C(c1ccccc1)=NCc1c(C(=O)NCc3ccco3)ncn1-2 [Example 35, 8-Ethynyl-N-(furan-2-ylmethyl)-6-phenyl-4H-benzo[f]imidazo[1,5-a][1,4]diazepine-3-carboxamide, dihydrochloride]
Emax: 200 to 300%

C#Cc1ccc2c(c1)C(c1ccccc1)=NCc1c(C(=O)NCC3CCCO3)ncn1-2 (stereo not shown) [Example 36, 8-Ethynyl-6-phenyl-N-((tetrahydrofuran-2-yl)methyl)-4H-benzo[f]imidazo[1,5-a][1,4]diazepine-3-carboxamide, dihydrochloride]
Emax: 300 to 400%

C#Cc1ccc2c(c1)C(c1ccccn1)=NCc1c(C(=O)NCCOC)ncn1-2 [Example 37, 8-Ethynyl-N-(2-methoxyethyl)-6-(pyridin-2-yl)-4H-benzo[f]imidazo[1,5-a][1,4]diazepine-3-carboxamide]
Emax: 200 to 300%

N-Cyclopropyl-8-ethynyl-6-phenyl-4H-benzo[f]imidazo[1,5-a][1,4]diazepine-3-carboxamide [Example 11]
GABAA α2 EP EMAX (%): ** (300% < Emax < 400 **)
